From patent EP2848122A1, “NEW PESTICIDE INCLUSION COMPLEXES, CO[…] COMPLEXES AND THE USE THEREOF AS PESTICIDES” (priority 2012, dated 2013)
Values after ≈ are worked out from the molar mass of the structure shown.

Assay: water solubility by ultraviolet (UV) spectrophotometry
Format: physicochemical
Conditions: at 25 °C, free pesticide, read-out: intrinsic solubility
From the text: Figure 1: Diagram of a solubility study using ultraviolet (UV) spectrophotometry of Bendiocarb as the concentration of cyclodextrin increases. Figure 2: Graph of differential scanning thermogravimetry (DST) of Bifenthrin alone, cyclodextrin (CD) alone, physical mixture of the two, and inclusion complex formed (encapsulated). Figure 3: Curves of differential thermal analysis (DTA) and thermal gravimetric analysis (TGA) of Tetramethrin alone, cyclodextrin (CD) alone, physical mixture of the two, and different inclusion complexes formed according to methods 1 or 2 and with the indicated stechiometries 1:1 or 2:1. Figure 4: Spectra of Nuclear Magnetic Resonance (1 H NMR) of Acetamiprid alone (a), cyclodextrin (CD) alone (b) and formed inclusion complex (c). Figure 5: Scanning electron photographs (SEM) of the structural change of Tebuconazole once the inclusion complex with cyclodextrin is formed. Figure 6: X-ray diffractograms (XRD) of Imidacloprid alone, cyclodextrin (CD) alone, physical mixture of both and inclusion complex formed (encapsulation). Figure 7: Diagram of the three-dimensional structures of the Acetamiprid-cyclodextrin complex by formation of a single crystal. Figure 8: Structural modelling by means of the program MACROMODEL of the Acetamiprid-cyclodextrin dimer. Figure 9: Performance of the Bendiocarb microencapsulation reaction (DSC). […]

CNC(=O)Oc1cccc2c1OC(C)(C)O2 [Bendiocarb]
solubility: 600 µM (≈ 134 µg/mL)
